Consider three compounds from US11278509B2, “Lithium salts of N-substituted glycine compounds and uses thereof” (SyneuRx International (Taiwan) Corp., priority 2017, dated 2022).

Format in all cases: in vivo, C57BL/6J male mice
Experiment [1] relates to MK801-treated mice. Nature of the experiment: Pre-pulse inhibition task, sensorimotor gating. How it is done:
(§1) All C57BL/6J male mice were purchased from Laboratory Animal Center of the College of Medicine of National Taiwan University. The mice were group housed (3-5 mice per cage) with food and water available ad libitum in polysulfone ventilated cages (Alternative Design, AR, USA) in the animal rooms of the Psychology Department of National Taiwan University. The colony was maintained on a 12/12-h light/dark cycle at the temperature of 22±2° C. and all behavioral studies were performed during dark cycle. All animals used in this study were adult mice (at least 2.5 months of age). All animal procedures were performed according to the protocols approved by Animal Care and Use Committee of National Taiwan University.
MK801, also known as dizocilpine, is an antagonist of NMDA receptor. Mice in Groups 2-6 were received an acute administration of MK-801 (a NMDA receptor antagonist, dissolved in normal saline, 0.1 or 0.2 mg/kg, i.p.) 20 min prior to behavioral tests. […]
Pre-pulse inhibition was used as an index of sensorimotor gating function using SR-LAB startle apparatus (San Diego Instruments, San Diego, Calif., USA). […] The percentage of pre-pulse inhibition was evaluated by the following formula: % PPI=100×[(PA score)−(pp-P score)]/(PA score), where the PA score was the average of the PA value in the middle blocks.

Experiment [2] has as its system MK801-treated mice. Kind of experiment: Open field task, MK801-induced hyper-locomotion. The following applies: for effect on MK-801 induced hyper-locomotion activity (travel distance, open field): 60 minutes. The method, then:
as §1
(§2) MK801, also known as dizocilpine, is an antagonist of NMDA receptor. Mice in Groups 2-6 were received an acute administration of MK-801 (a NMDA receptor antagonist, dissolved in normal saline, 0.1 or 0.2 mg/kg, i.p.) 20 min prior to behavioral tests. Mice in Groups 3-6 were received an oral gavage of N-methylglycine or lithium N-methylglycine, respectively (dissolved in PBS) 15 min prior to MK801 administration. The […] molarities of lithium N-methylglycine (300 mg/kg and 1000 mg/kg) were equal to those of N-methylglycine (278 mg/kg and 927 mg/kg), respectively.
(§3) Two cohorts ([…]) of mice were used in the present study, the cohort 1 (48 mice) were sequentially tested with open field (for MK801-induced hyper-locomotion) and pre-pulse inhibition (for sensor-motor gap function) tasks. The mice in cohort 2 (34 mice) were sequentially tested with Barnes maze (spatial learning and memory) task.
The open field task is a common measure of novel environment-induced exploratory behavior and general activity in both mice and rats. In the present study, the mice were placed in a Plexiglas cage (37.5 cm×21.5 cm×18 cm) under 50-65 lux light intensity, and their spontaneous locomotor activity was measured for 60 minutes using the EthoVision video tracking system (Noldus Information Technology, the Netherlands). The travel distance of each mouse was measured as an index of locomotion activity.

Experiment [3] relates to MK801-treated mice. Kind of experiment: Barnes maze task, spatial learning and memory. Particulars: MK-801 0.2 mg/kg i.p. The method, then: as §1, §2, §3
Mice were tested in a Barnes maze to examine spatial learning and memory as described previously (Barnes, 1979). This Barnes maze paradigm has been commonly examined in mouse models of CNS disorders, including, but not limited to, schizophrenia, depression, obsessive compulsive disorder, post-traumatic stress disorder, addiction disorders, Alzheimer's disease, frontotemporal dementia, Parkinson's disease, Duchenne muscular dystrophy, stroke, and Fragile X syndrome (see Cook et al., 2014; Gotz and Ittner, 2008; Hendriksen and Vles, 2008; Conklin et al., 2000; Song et al., 2006; Lai et al., 2014; Vasterling et al., 2002; Hyman, 2005; Schaar et al., 2010; Santos et al., 2014; Zhu et al., 2007; Deckersbach et al., 2000). The testing apparatus was an elevated (50 cm above the floor) circular Plexiglas plate (100 cm in diameter) with 20 holes (7 cm in diameter, 7 cm between holes) evenly spaced around the perimeter. Mice were trained on the plate to identify an escape box (25×8×6 cm) hidden behind the target hole, which was designated as an analog to the hidden platform in the Morris water maze task. The location of the target hole was selected for a given mouse but randomized across mice. Mice were initially placed in the center of the plate covered by an opaque cylinder, and the cylinder was removed 10 s after the beginning of the trial with both an aversive tone (440 Hz, 85 dB) and light (100 lux) switched on. […] The spatial memory was measured by the “probe test.” All the training trials and the probe tests were videotaped for 3 min, and then the escape latency for the training trials and the percentage of time in different quadrants (target, left, right, and opposite) during the probe test were analyzed. […]

Setting [4] is: MK-801 0.1 or 0.2 mg/kg i.p. 20 min prior to test.

Regarding `C[C@]12N[C@H](Cc3ccccc31)c1ccccc12` [MK-801, dizocilpine, reference compound], the “sensorimotor gating function in the pre-pulse inhibition test compared to the control group” value in experiment [1] (setting [4]) was “induced the sensorimotor gating function deficit”. In addition, the “locomotion in the open field test compared to the control group” value in experiment [2] (setting [4]) was “induced the hyper-locomotion”. In experiment [3], the “learning ability and memory in the Barnes maze task compared to the control group” value was “poor learning ability and memory deficit”.

As to `CNCC(=O)O` [N-methylglycine, reference compound], in experiment [2] (927 mg/kg oral gavage 15 min prior to MK801 i.p.), the “effect on MK-801 induced hyper-locomotion activity (travel distance, open field)” value is “marginally effective”. Besides, the “memory phase (probe test) after MK-801 induced memory deficit” value in experiment [3] (dose not stated) was “not effective”.

Consider `CNCC(=O)O.[Li]` [lithium N-methylglycine], for which the “effect on MK-801 induced deficit in pre-pulse inhibition (% PPI)” value in experiment [1] (300 mg/kg and 1000 mg/kg oral gavage + MK801, prepulse 78, 82, 90 dB, especially at 90 dB) is recorded as “alleviated”. The “dose dependence of effect on MK-801 induced hyper-locomotion” value in experiment [2] (300 mg/kg and 1000 mg/kg oral gavage + MK-801) is given as “Dose-dependent effect”. Besides, the “effect on MK-801 induced hyper-locomotion activity (travel distance, open field)” value in experiment [2] (300 mg/kg oral gavage 15 min prior to MK801 i.p.) and in experiment [2] (1000 mg/kg oral gavage 15 min prior to MK801 i.p.) was “effective” each time. Further, in experiment [2] (equal molarities: 300/1000 mg/kg vs 278/927 mg/kg), the “reducing hyperactivity induced by MK-801, compared with N-methylglycine” value is “much more effective than N-methylglycine”. Further, the “learning phase (escape latency in training trials) after MK-801 induced learning deficit” value in experiment [3] (1000 mg/kg oral gavage) is reported as “enhances the learning”. Further, in experiment [3], the “recovery of memory deficit induced by MK-801, compared with N-methylglycine” value is listed as “much superior as compared with N-methylglycine”. Further, the “memory phase (time in target zone, probe test) after MK-801 induced memory deficit” value in experiment [3] (high dose (1000 mg/kg) oral gavage) is listed as “completely ameliorated the memory deficit”.
